In PMC3932137, “Simple, sensitive and rapid determination of linifanib (ABT-869), a novel tyrosine kinase inhibitor in rat plasma by UHPLC-MS/MS” (Chemistry Central Journal, 2014):
Values belong to the compound of their own block, whether it stands above or below them.

What was measured:
[1] = stability of stock solutions and working solutions; format: physicochemical; conditions: for time stock solutions and working standard stable at refrigerator temperature: refrigerator temperature (below 10°C)
Method: (§1) The stability of linifanib in rat plasma during the sample storage and processing conditions was assessed by analyzing six replicates of LQC and HQC. Short-term stability was assessed after keeping the plasma samples at ambient temperature for ∼ 6 h, the freeze–thaw stability was determined after three cycles of freeze-thaw. Post-preparative stability was determined by storing the reconstituted QC samples for ∼ 48 h under autosampler conditions (maintained at 10°C) before being analyzed. Long-term stability was assessed after storage of the test samples at around −80°C for 30 days. The working solutions and stock solutions of linifanib and the IS were also evaluated for stability at room temperature for 12 h and at refrigerator temperature (below 10°C) for 15 days. The samples were considered stable in plasma at each concentration if the deviation from the mean calculated concentration of quality control samples were within ±15%.

[2] = design: method as in PMID 22382879, PMID 19720910; conditions: phase I study, cited from earlier work
[3] = stability of linifanib in rat plasma during sample storage and processing; format: in vitro ADME; conditions: for Accuracy (%) / Mean ± SD concentration found: n = 6
Method: as §1

[4] = pilot pharmacokinetic study of linifanib in rats (oral); format: in vivo; conditions: male, Wistar albino, plasma, rat, 5 mg/kg oral, single dose
Method: After an overnight fasting, all rats received linifanib (5 mg/kg, oral, dissolved in HPMC). Blood samples (approximately 0.5 mL) were collected from the retro-orbital plexus into heparinized microfuge tubes at different time interval after linifanib administration and plasma samples were harvested by centrifuging the blood at 4500 rpm for 8 min and stored frozen at −80 ± 10°C until analysis. The pharmacokinetic parameters: Cmax, Tmax, AUC, t½ and Kel were calculated using WinNonlin software.

[5] = rat plasma, 30 days at −80°C, nominal 1.28 ng/mL
[6] = rat plasma, 30 days at −80°C, nominal 425 ng/mL
[7] = rat plasma, bench top (6 hrs), nominal 1.28 ng/mL
[8] = rat plasma, bench top (6 hrs), nominal 425 ng/mL
[9] = rat plasma, freeze thaw (3 cycle), nominal 1.28 ng/mL
[10] = rat plasma, freeze thaw (3 cycle), nominal 425 ng/mL
[11] = reconstituted QC samples in injector (48 hrs, 10°C), nominal 1.28 ng/mL
[12] = reconstituted QC samples in injector (48 hrs, 10°C), nominal 425 ng/mL

- time stock solutions and working standard stable at refrigerator temperature [1]: 15 days
- time stock solutions and working standard stable at room temperature [1]: 12 h
Structure (SMILES): CCN(CC)CCNC(=O)c1c(C)[nH]c(/C=C2\C(=O)Nc3ccc(F)cc32)c1C [IS, sunitinib]

- time stable in autosampler ([3]; autosampler maintained at 10°C): 48 h
- Accuracy (%) [3, 5]: 98.3%
- Mean ± SD concentration found [3, 5]: 1.26 ± 0.10 ng/mL
- Accuracy (%) [3, 6]: 90.5%
- Mean ± SD concentration found [3, 6]: 384 ± 20.2 ng/mL
- Accuracy (%) [3, 7]: 105.0%
- Mean ± SD concentration found [3, 7]: 1.35 ± 0.06 ng/mL
- Accuracy (%) [3, 8]: 92.7%
- Mean ± SD concentration found [3, 8]: 393 ± 34.8 ng/mL
- Accuracy (%) [3, 9]: 101.1%
- Mean ± SD concentration found [3, 9]: 1.30 ± 0.10 ng/mL
- Accuracy (%) [3, 10]: 90.7%
- Mean ± SD concentration found [3, 10]: 385 ± 14.3 ng/mL
- Accuracy (%) [3, 11]: 110.6%
- Mean ± SD concentration found [3, 11]: 1.42 ± 0.09 ng/mL
- Accuracy (%) [3, 12]: 107.2%
- Mean ± SD concentration found [3, 12]: 455 ± 19.8 ng/mL
- time stable in rat plasma at around −80°C ([3]; spiked into rat plasma, around −80°C): up to 30 days
- time stable in rat plasma at room temperature ([3]; spiked into rat plasma, room temperature): at least 6.0 h
- freeze-thaw stability in rat plasma ([3]; spiked into rat plasma, three freeze-thaw cycle): stable
- time stock solutions and working standard stable at refrigerator temperature [1]: 15 days
- time stock solutions and working standard stable at room temperature [1]: 12 h
- k el [4]: 2.78e-05 s⁻¹
- half-life ([4]; read-out: average t½ (converted)): 6.67 h
- AUC(0-t) ([4]; read-out: mean AUC0-8h): 232 ng·h/mL
- Cmax ([4]; read-out: mean peak plasma concentration (Cmax)): 55.1 ng/mL
- Tmax ([4]; read-out: time to peak plasma concentration (Tmax)): 2.5 h
Structure (SMILES): Cc1ccc(F)c(NC(=O)Nc2ccc(-c3cccc4[nH]nc(N)c34)cc2)c1 [linifanib, N-(4-(3-amino-1H-indazol-4-yl)phenyl)-N'-(2-fluoro-5-methylphenyl)urea]
- time to peak plasma concentration ([2]; across all dose levels): approx. 2 h
- dose recovered as unchanged in urine [2]: 15%
- oral clearance [2]: 2.7 L/h
- pharmacokinetics (dose and time dependence) [2]: dose proportional and time invariant
